Laboratory results: patent US20150309042A1, “FLUOROGENIC DENDRIMER REPORTERS AND RELATED METHODS OF USE” (The Regents of the University of Michigan, priority 2013, published 2015)

Columns and labels:
[1] = 'click-on' reaction with a representative alkyne-derivatized molecule, fluorescence emission measurement; assay type: physicochemical; conditions: azidocoumarin free vs. attached to the dendrimer
Procedure: The fluorogenic properties of the small molecule and dendrimer coumarin reporters were first evaluated by performing the ‘click’ reaction with a representative alkyne-derivatized molecule, 3-(4-(prop-2-yn-1-yloxy)phenyl)propionic acid at room temperature for 12 hours (Scheme 2). […] However, after attaching to the dendrimer, the absorbance of azidocoumarin has red-shifted 20 nm (λmax Ex 340 vs. 360 nm). Following ligation with the alkyne-derivatized molecule, the G5-Coumarin 3 increased its fluorescence 21-fold (FIG. 1). […] This difference in fluorescent enhancement was primarily attributable to the decrease in the background fluorescence intensity of azidocoumarin on the dendrimer reporter. The structure-property relationships are still under investigation.
Experimental Procedure of “Click-on and Probe” Reaction G5-coumarin 3 was dissolved in Cu(II) sulfate (10 mol % per COUlnarin, 1 mg/mL H20 solution) solution. 3-(4-(prop-2-yn-1-yloxy)phenyl)propanoic acid (5 per coumarin, 5 mg/mL DMSO solution) were added. The reaction mixture was incubated at room temperature for 12 h before diluted in H2O for fluorescent emission measurement. […] The excitation and emission spectra were recorded after dilution using H2O.

KB cells = assay: detection of EdU incorporated into newly synthesized DNA of KB cells by 'click' ligation and flow cytometry; assay type: cell-based
Excerpt: The efficacy of the fluorogenic reporters in monitoring metabolite flux in a typical cell culture system was next evaluated. 5-ethynyl-2′-deoxyuridine (EdU), a nucleoside analogue, incorporation into newly synthesized DNA (Scheme 2), a common molecular biology technique to profile cellular proliferation, was monitored (see, e.g., Hahn, C. G.; Han, L. Y.; Rawson, N. E.; Mirza, N.; Borgmann-Winter, K.; Lenox, R. H.; Arnold, S. E. J Comp Neurol 2005, 483, 154; Salic, A.; Mitchison, T. J. P Natl Acad Sci USA 2008, 105, 2415; Limsirichaikul, S.; Niimi, A.; Fawcett, H.; Lehmann, A.; Yamashita, S.; Ogi, T. Nucleic Acids Res 2009, 37; Yamakoshi, H.; Dodo, K.; Okada, M.; Ando, J.; Palonpon, A.; Fujita, K.; Kawata, S.; Sodeoka, M. J Am Chem Soc 2011, 133, 6102). Traditionally, 5-bromo-2′-deoxyuridine (BrdU), an antibody-specific nucleoside analogue, has been used to monitor DNA synthesis but is limited by the complicated processing and signal variability (see, e.g., Declercq, E.; Descamps, J.; Balzarini, J.; Giziewicz, J.; Barr, P. J.; Robins, M. J. J Med Chem 1983, 26, 661). EdU is a DNA base modified with a terminal alkyne group replacing the methyl group in the 5 position and is readily incorporated into newly synthesized DNA during cell proliferation. […] To compare the detection efficacy of the different fluorogenic reporters, the DNA-incorporated EdU molecules were ligated with either the small molecule 3-azido-7-hydroxy coumarin or the dendrimer-coumarin reporters (G5-Coumarin 3) using ‘click’ reactions and then analyzed by flow cytometry. […] Similar to other ‘click’ reaction detection methods with traditional azide fluorescent reporters, detection of EdU incorporation into DNA with the fluorogenic dendrimer reporters retain the accuracy of the traditional assays but reduces background fluorescence greatly improving assay throughput.
EdU Labeling and Staining of Cultured Cells. […] Fluorescence signal intensities from the samples were measured using an Accuri C6 Flow Cytometer (Ann Arbor, Mich.) and data were analyzed using FlowJo 8.7 software (TreeStar).

λmax Ex [1]: 340 nm
SMILES: [N-]=[N+]=Nc1cc2ccc(O)cc2oc1=O [3-azido-7-hydroxy coumarin]
fluorescence intensity after standard wash steps (KB cells; KB cells with EdU, after standard wash steps): decreased | cell positive rate before wash steps (KB cells; KB cells with EdU, no washes): much higher degree of cell positive rate | fluorescent intensity after ligation with DNA-incorporated EdU (KB cells; KB cells, 10 μM EdU for 5 hours, reporters at 10 nM and 100 nM): increases in fluorescent intensity
